Test system: NCI-H295R
Test: IC50 (antiproliferative, ATP content)
Settings: 48 h
Outline: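 Adrenocortical carcinoma cells in 1536-well plates (1500 per well, serum-free DMEM plus ITS, overnight culture) were exposed for 48 h at 37 °C, 5% CO2 to pin-transferred compounds at 8 final concentrations ranging 0.6 nM to 46 µM. ATP content was then read as CellTiter-Glo luminescence and normalised to vehicle and positive-control wells. The IC50 came from logistic curve fits, and any compound lacking a concentration response was recorded as above the top dose.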

Structure (SMILES)	IC50 [µM]
NS(=O)(=O)c1cc(-c2nnn[nH]2)c(NCc2cccs2)cc1Cl	> 46
CC(=O)OO	> 46
CCCCOc1ccc(OCCCN2CCOCC2)cc1.Cl	> 46
O=C(CCCN1CCC(n2c(=O)[nH]c3ccccc32)CC1)c1ccc(F)cc1	> 46
Cc1cc(=O)[nH]c(=S)[nH]1	> 46
O=[C@](CO)[C@]([C@H]2C1)(O[C@@](CCC)([H])O2)[C@](C[C@@H]3O)(C)[C@@]1([C@@]([C@@]([C@](C)4C=C5)3[H])(CCC4=CC5=O)[H])[H]	> 46
O=C(O)CCc1nc2ccccc2[nH]1	> 46
COc1cc(NC(C)CCCN)c2ncccc2c1.O=P(O)(O)O.O=P(O)(O)O (stereo unspecified)	> 46
O=C(O)c1cc(-c2ccc(F)cc2F)ccc1O	> 46
C[C@]12CC[C@@H]3c4ccc(O)cc4C[C@@H](CCCCCCCCCS(=O)CCCC(F)(F)C(F)(F)F)[C@H]3[C@@H]1CC[C@@H]2O (stereo partly specified)	> 46
N=C(Nc1ccccc1)Nc1ccccc1	> 46
CCCN1CCC[C@@H]2Cc3n[nH]cc3C[C@H]21	> 46
CCC1(c2ccccc2)C(=O)N(COC)C(=O)N(COC)C1=O	> 46
O=C([O-])c1cc(=O)c2c(OCC(O)COc3cccc4oc(C(=O)[O-])cc(=O)c34)cccc2o1.[Na+].[Na+]	> 46
Clc1ccccc1Cl	> 46
CC(C)c1cccc(C(C)C)c1O	> 46
CCN1CCC[C@H]1CNC(=O)c1c(O)c(Cl)cc(Cl)c1OC	> 46
CCCCCCCCCCCCCCCC(=O)O	> 46
CCCCNc1ccc(C(=O)OCCN(C)C)cc1.Cl	> 46
CC(C)(C)CC(C)(C)c1cc(Cc2cc(C(C)(C)CC(C)(C)C)cc(-n3nc4ccccc4n3)c2O)c(O)c(-n2nc3ccccc3n2)c1	> 46
CO[C@@]1(NC(=O)C(C(=O)[O-])c2ccc(O)cc2)C(=O)N2C(C(=O)[O-])=C(CSc3nnnn3C)CO[C@@H]21.[Na+].[Na+] (stereo partly specified)	> 46
C=CCc1ccccc1OCC(O)CNC(C)C (stereo unspecified)	> 46

Structure (SMILES)	IC50 [µM]
C#CCN[C@@H]1CCc2ccccc21.CS(=O)(=O)O	> 46
CC(=O)Oc1ccccc1C(=O)O	> 46
CCCCCCCCCCCCCCCCCCCCCCO	> 46
CCCNC(C)C(=O)Nc1c(C)csc1C(=O)OC.Cl (stereo unspecified)	> 46
CCOP(=S)(OCC)Oc1ccc2c(C)c(Cl)c(=O)oc2c1	> 46
O=C(OOC(=O)c1ccccc1)c1ccccc1	> 46
C[NH+](C)CCC(c1ccccc1)c1cccc[nH+]1.O=C([O-])/C=C\C(=O)[O-] (stereo unspecified)	> 46
c1ccc(C2CC2)c(OCC2=NCCN2)c1	> 46
CC(C)(C)NCC(O)COc1cccc2c1C[C@H](O)[C@H](O)C2 (stereo partly specified)	> 46
[Na+].C/C(C)=C\Cc1cc(ccc1O)C(=O)N\C3=C(/[O-])c4ccc(O[C@@H]2OC(C)(C)[C@H](OC)[C@@H](OC(N)=O)[C@H]2O)c(C)c4OC3=O	> 46
Cc1ccc(/N=C/N(C)/C=N/c2ccc(C)cc2C)c(C)c1	> 46
NC(=S)N/N=C/c1cccnc1	> 46
COc1ccc(C(=O)c2ccccc2O)c(O)c1	> 46
NC(Cc1ccccc1)C(=O)O (stereo unspecified)	> 46
O=Cc1ccccc1C=O	> 46
O=C(Cn1ccnc1[N+](=O)[O-])NCc1ccccc1	> 46
OC[C@H]1O[C@@](CO)(O[C@H]2O[C@H](CO)[C@@H](O)[C@H](O)[C@H]2O)[C@@H](O)[C@@H]1O	> 46
COc1ccc(C[C@@H](C)NC[C@H](O)c2ccc(O)c(NC=O)c2)cc1.COc1ccc(C[C@@H](C)NC[C@H](O)c2ccc(O)c(NC=O)c2)cc1.O=C(O)/C=C/C(=O)O	> 46
CC/C=C\C/C=C\C/C=C\CCCCCCCC(=O)O	> 46
O=[C@](O)[C@@H]1[C@@H](CC(O)=O)[C@@H]([C@](C)=C)CN1	> 46
Cn1c(CCCC(=O)O)nc2cc(N(CCCl)CCCl)ccc21	> 46
CCC(Cc1c(I)cc(I)c(O)c1I)C(=O)O (stereo unspecified)	> 46

Structure (SMILES)	IC50 [µM]
COc1ccc2c(c1)c1c3n2CCN(C)C3=NCC1	> 46
c1ccc(C2(N3CCCC3)CCCCC2)cc1	> 46
Cc1cn([C@H]2C[C@H](N=[N+]=[N-])[C@@H](CO)O2)c(=O)[nH]c1=O	> 46
NCCC[C@H](N)CC(=O)N[C@H]1CNC(=O)[C@H]([C@H]2C[C@H](O)N=C(N)N2)NC(=O)/C(=C/NC(N)=O)NC(=O)[C@H](CO)NC(=O)[C@H](CO)NC1=O.O=S(=O)(O)O	> 46
CC(O)CO (stereo unspecified)	> 46
COP(=O)(OC)OC=C(Cl)Cl	> 46
CCCCCN(C)CCC(O)(P(=O)([O-])O)P(=O)(O)O.[Na+]	> 46
CN(CCO)CC(O)Cn1cnc2c1c(=O)n(C)c(=O)n2C.O=C(O)c1cccnc1 (stereo unspecified)	> 46
CC1(C)C(C=C(Cl)Cl)C1C(=O)OCc1cccc(Oc2ccccc2)c1 (stereo unspecified)	> 46
NNCCc1ccccc1.O=S(=O)(O)O	> 46
CC(C)c1ncc([N+](=O)[O-])n1C	> 46
C=C[C@H]1CN2CCC1C[C@@H]2[C@@H](O)c1ccnc2ccccc12 (stereo partly specified)	> 46
CC(CN(C)C)C(C)(O)Cc1ccc(Cl)cc1.Cl (stereo unspecified)	> 46
COC(=O)C1=CCCN(C)C1	> 46
O=C1N(c2ccccc2)c2ccccc2C1(Cc1ccncc1)Cc1ccncc1	> 46
OC(c1ccccc1)(c1ccccc1)C1CN2CCC1CC2 (stereo unspecified)	> 46
CCC(C(=O)OCCOCCN(CC)CC)c1ccccc1.O=C(O)CC(O)(CC(=O)O)C(=O)O (stereo unspecified)	> 46
CCOC(=O)NC(O)C(Cl)(Cl)Cl (stereo unspecified)	> 46
Cc1cc(C)nc(NS(=O)(=O)c2ccc(N)cc2)n1	> 46
N#CCCN.N#CCCN.O=C(O)/C=C/C(=O)O	> 46

The next lines start with the values.

IC50 [µM]	Structure (SMILES)
> 46	O=C([O-])C[C@H](O)C[C@H](O)/C=C/c1c(C2CC2)nc2ccccc2c1-c1ccc(F)cc1.O=C([O-])C[C@H](O)C[C@H](O)/C=C/c1c(C2CC2)nc2ccccc2c1-c1ccc(F)cc1.[Ca+2]
> 46	OC[C@@H](O)[C@@H](O)[C@H](O)[C@H](O)CO
> 46	CCCCC(CC)COC(=O)C(C#N)=C(c1ccccc1)c1ccccc1 (stereo unspecified)
> 46	CC(C)O
> 46	N[C@H](C(=O)O)c1ccc(O)cc1
> 46	Cl[C@]1([C@](C)2C=C3)[C@@H](O)C[C@@]([C@]([C@@](CO)=O)(O)[C@H]4C)(C)[C@](C4)([H])[C@@]([H])1CCC2=CC3=O
> 46	OCC1(CO)COC(C(Cl)(Cl)Cl)OC1
> 46	O=[C@](O)[C@@H]2CC1=C(CN2C([C@H](C)N[C@@H](CCC3=CC=CC=C3)[C@](OCC)=O)=O)C=C(OC)C(OC)=C1.Cl
> 46	CCc1ccc(CCOc2ccc(CC3SC(=O)NC3=O)cc2)nc1.Cl (stereo unspecified)
> 46	COP(=O)(OC)OC(c1ccc(Cl)cc1)P(=O)(OC)OC (stereo unspecified)
> 46	C[C@H](O)C(=O)Nc1c(I)c(C(=O)NC(CO)CO)c(I)c(C(=O)NC(CO)CO)c1I
> 46	COc1c(O[C@@H]2O[C@H](CO)[C@@H](O)[C@H](O)[C@H]2O)cc2c(c1OC)-c1ccc(SC)c(=O)cc1[C@@H](NC(C)=O)CC2
> 46	CCc1c(C)[nH]c2c1C(=O)C(CN1CCOCC1)CC2 (stereo unspecified)
> 46	CCCCC1C(=O)N(c2ccccc2)N(c2ccccc2)C1=O
> 46	CN1CCCCC1CCN1c2ccccc2Sc2ccc(S(C)=O)cc21 (stereo unspecified)
> 46	FCOC(C(F)(F)F)C(F)(F)F
> 46	N\1(C(NC(/C(=C/1)C)=O)=O)[C@@H]2O[C@H](CO)[C@H](C2)O
> 46	Cl.OC(CCN1CCCCC1)(c1ccccc1)C1CCCCC1 (stereo unspecified)
> 46	CCCCC(CC)COC(=O)C=Cc1ccc(OC)cc1 (stereo unspecified)

IC50 [µM]	Structure (SMILES)
> 46	Clc1ccc(C(Cn2ccnc2)OCc2c(Cl)cccc2Cl)c(Cl)c1 (stereo unspecified)
> 46	CC(/C=C/C=C(\C)C(=O)O[C@@H]1O[C@H](CO[C@@H]2O[C@H](CO)[C@@H](O)[C@H](O)[C@H]2O)[C@@H](O)[C@H](O)[C@H]1O)=C\C=C\C=C(C)\C=C\C=C(/C)C(=O)O[C@@H]1O[C@H](CO[C@@H]2O[C@H](CO)[C@@H](O)[C@H](O)[C@H]2O)[C@@H](O)[C@H](O)[C@H]1O
> 46	Cc1noc(NS(=O)(=O)c2ccc(N)cc2)c1C
> 46	[Cl][In]([Cl])[Cl]
> 46	CCN(CC)CCNC(C(=O)OCCC(C)C)c1ccccc1 (stereo unspecified)
> 46	O=C(SC[C@@H](C(N(C3)[C@@H](C[C@@H]3SC2=CC=CC=C2)[C@@](O)=O)=O)C)C1=CC=CC=C1
> 46	O[C@H](C)[C@@H](N[C@]([C@@H]2C[C@@H](CCC)CN2C)=O)[C@@H]1[C@H](O)[C@H](O)[C@@H](O)[C@@H](SC)O1.Cl
> 46	C=C(C)C1CC=C(C)CC1 (stereo unspecified)
> 46	COc1cc2ncnc(Nc3ccc(F)c(Cl)c3)c2cc1OCCCN1CCOCC1
> 46	COc1ccc(CCNC[C@H](O)c2ccc(O)cc2)cc1OC
> 46	CC(C)Cc1ccc(C(C)C(=O)O)cc1 (stereo unspecified)
> 46	CC(C)NC[C@@H](O)COc1ccc(CC(N)=O)cc1
> 46	CCCCC/C=C\C/C=C\C/C=C\CCCCC(=O)O
> 46	Nc1cc(N2CCCCC2)nc(N)[n+]1[O-]
> 46	COCC(=O)Nc1c(I)c(C(=O)NCC(O)CO)c(I)c(C(=O)N(C)CC(O)CO)c1I (stereo unspecified)
> 46	CC(=O)Nc1ccc(O)cc1
> 46	CCN(CC)C(=O)Nc1ccc(OCC(O)CNC(C)(C)C)c(C(C)=O)c1.Cl (stereo unspecified)
> 46	Nc1nc(=O)n([C@@H]2CS[C@H](CO)O2)cc1F
